Earlier results in US20060222709A1 (AGI Therapeutics Research Ltd., priority 2005, published 2006).

What was measured:
[1] = system: women patients with IBS-C; settings: 6 mg twice daily
[2] = system: patients with chronic constipation; settings: two trials

Structure (SMILES): CN(C)C(=N)N=C(N)N [metformin, dimethylbiguanide]
- acute, reversible adverse effects, mainly of gastrointestinal tract origin, patients affected (human, in vivo): up to 20%
- prevalence of diarrhea (treated diabetes patients (Bytzer 2001)): 20%

Structure (SMILES): CCCCCNC(=N)N/N=C/c1c[nH]c2ccc(OC)cc12.O=C(O)/C=C\C(=O)O [tegaserod, 3-(5-methoxy-1H-indol-3-ylmethylene)-N-pentylcarbazimidamide hydrogen maleate]
- global and individual symptoms [1]: effectively improves global and individual symptoms

Structure (SMILES): OC[C@H]1O[C@@H](O[C@@H]2[C@@H](CO)OC(O)(CO)[C@H]2O)[C@H](O)[C@@H](O)[C@H]1O (mixture of isomers) [lactulose]
- stool frequency and consistency versus placebo [2]: more effective than placebo
